Patent US10195156B2, “Compounds and compositions for intracellular delivery of agents” (ModernaTX, Inc., priority 2015, dated 2019)

Tests used:
hEPO mRNA expression [1] = experiment: Expression of hEPO in CD-1 mice; format: in vivo; details: Table 7e; hEPO expression, CD-1 mice, 0.5 mpk
Description: FIG. 12 is a set of graphs illustrating hEPO expression levels in CD-1 mice dosed with compounds of the disclosure, compared to MC3. PBS is used as control. […] In graphs A-C numbers 1-14 refer to compositions containing the following: 1: Compound 73, 2: Compound 80, 3: Compound 70; 4: Compound 81; 5: Compound 69; 6: Compound 82; 7: Compound 83; 8: Compound 62; 9: Compound 84; 10: Compound 85; 11: Compound 86; 12: Compound 87; 13: MC3; 14: PBS.
FIG. 13 is a graph showing hEPO levels (pg/mL) in CD-1 mice up to ˜25 h after administration of a nanoparticle composition containing compounds of the disclosure, compared to a composition containing MC3. Numbers 1-13 refer to compositions containing the following: 1: Compound 73, 2: Compound 80, 3: Compound 70; 4: Compound 81; 5: Compound 69; 6: Compound 82; 7: Compound 83; 8: Compound 62; 9: Compound 84; 10: Compound 85; 11: Compound 86; 12: Compound 87; 13: MC3. […]

[2] = Particle size and polydispersity index of nanoparticle compositions (Zetasizer Nano ZS); format: physicochemical
Summary of the method: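 Particle size and PDI were measured on a Zetasizer Nano ZS with the nanoparticle compositions dispersed in 1×PBS.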

[3] = Encapsulation efficiency of RNA (QUANT-IT RIBOGREEN RNA assay); format: physicochemical
Summary of the method: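 Nanoparticle samples diluted to ~5 μg/mL RNA in TE buffer (pH 7.5), incubated with or without 2% Triton X-100 solution at 37 °C for 15 min, then RiboGreen added. Fluorescence read at ~480/520 nm, blank-subtracted; free RNA % = intact over Triton-disrupted signal.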

hEPO mRNA expression [4] = experiment: Expression of hEPO in rats after intravenous administration; format: in vivo; details: hEPO expression in S.D. rats; for AUC/MC3 0.1 mpk / AUC/MC3 1 mpk: relative to MC3
Description: PBS (phosphate buffered saline) is used as control.
Formulations were prepared according to Table 5 and included mRNA encoding hEPO.
[…] After the 48 hour time point, livers and spleens were harvested and frozen.

[5] = Lipid clearance: % dose remaining in mouse liver 6 h and 24 h after administration of nanoparticle compositions; format: in vivo, CD-1 mice
Description: In contrast, hEPO expression in rats induced by administration of a nanoparticle composition including a compound according to one of formulae (I), (Ia1)-(Ia6), (Ib), (II), (IIa), (III), and (IIIa) was substantially […] than that measured for MC3. […] Table 7c and 7d show additional protein expressions and clearance data from compositions with various compounds disclosed herein as compared to with MC3.

[6] = Lipid levels in liver and spleen 48 hours after administration; format: in vivo, rats; details: rat liver, 48 h
Description: Formulations were administered intravenously to rats (n=3 or 6) at a dosage of 0.2 mg/kg or 0.5 mg/kg (mpk) and hEPO levels measured at 3, 6, and 24 hour time points. After the 48 hour time point, livers and spleens were harvested and frozen.
The amount of lipid in the liver and spleen 48 hours after administration of a nanoparticle composition was also measured. […] In contrast, approximately 60% of doses including MC3 or Compound 22 remained in the liver after 48 hours. Less than 3% of the dose remained in the spleen for each composition tested.

[7] = test system: modified luciferase expression; experiment: Expression of Luc in different organs (liver, lung, spleen, femur) 6 hours after intravenous administration; format: in vivo; details: Table 3, mice, i.v., 0.5 mpk
Description: The efficacy of the nanoparticle compositions presented in Tables 1, 1a, 17-1, 19-1, 20-1 and 21-1 was further evaluated by measuring the expression of modified luciferase in the liver, lung, spleen, and femur upon administration of a given composition. Formulations were administered intravenously to mice (n=3) at a dosage of 0.5 mpk and bioluminescence measured after 6 hours. The standard MC3 formulation and a PBS control were also tested.

[8] = pKa of nanoparticle compositions; format: physicochemical; details: Table 1; rows without footnote mark
[9] = test system: luciferase (Luc) mRNA expression; experiment: Expression of Luc induced by sample formulations, whole-body bioluminescence after intravenous administration; format: in vivo; details: Table 2; mice, i.v., 0.5 mg/kg, 6 hours
Summary of the method: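 Mice (n=6) dosed intravenously with Luc mRNA nanoparticle formulations at 0.5 mg/kg. Whole-body bioluminescence measured at 3, 6 and 24 h. Standard MC3 formulation and PBS control run alongside.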

[10] = Table 1, rows without footnote mark
[11] = Table 1, rows without footnote mark (lipid:DOPE:cholesterol:PEG-DMG 40:20:38.5:1.5, Luc mRNA; MC3 standard formulation)

| Compound | PDI ([2]; Table 1b) | Size (nm) ([2]; Table 1b) | EE (%) ([3]; Table 1b) | PDI [2, 10] | Size (nm) [2, 11] [nm] | % Dose remaining 6 h CD-1 mice [5] [%] | % Dose remaining 24 h CD-1 mice [5] [%] | % dose remaining Mouse liver (24 h) [5] [%] | % dose remainng Rat liver (48 h) [6] [%] | EE (%) [3, 10] [%] | pKa [8] | particle size, rank within the named table (in words) ([2]; comparison amongst compositions) | AUC (p/s*h) CD-1 mice 0.5 mpk (hEPO mRNA expression [1]) [p/s*h] | AUC (0.1 mpk) (hEPO mRNA expression [4]) | AUC/MC3 0.1 mpk (hEPO mRNA expression [4]) | AUC (1 mpk) (hEPO mRNA expression [4]) | AUC/MC3 1 mpk (hEPO mRNA expression [4]) | Total Flux Liver [7] | Total Flux Spleen [7] | Total Flux 6 hours [9] |
| --- | --- | --- | --- | --- | --- | --- | --- | --- | --- | --- | --- | --- | --- | --- | --- | --- | --- | --- | --- | --- |
| CCCCCCCCCN(CCCCCCCCC)CCC1CCCN(C(=O)CN(CCCCCCCCC)CCN(CCCCCCCCC)CCCCCCCCC)C1 (stereo not drawn) [Compound 73, 2-((2-(Dinonylamino)ethyl)(nonyl)amino)-1-(3-(2-(dinonylamino)ethyl)piperidin-1-yl)ethan-1-one] | 0.25 | 84.3 | 98.85 |  |  |  |  |  |  |  |  |  | 1.41E+8 |  |  |  |  |  |  |  |
| CCCCCCCCCN(CCCC(=O)OCCCCC)CCCC1CCN(C(=O)CCN(CCCCCCCCC)CCN(CCCCCCCCC)CCCCCCCCC)CC1 [Compound 84, Pentyl 4-((3-(1-(3-((2-(dinonylamino)ethyl)(nonyl)amino)propanoyl)piperidin-4-yl)propyl)(nonyl)amino)butanoate] | 0.19 | 68.6 | 98.48 |  |  |  |  |  |  |  |  |  | 5.10E+7 |  |  |  |  |  |  |  |
| CCCCCCCCCN(CCCCCCCCC)CCN(CCCCCCCCC)CC(=O)N1CCN(C(=O)CN(CCCCCCCCC)CCCC(=O)OCCCCC)CC1 [Compound 45, Pentyl 4-((2-(4-(N-(2-(dinonylamino)ethyl)-N-nonylglycyl)piperazin-1-yl)-2-oxoethyl)(nonyl)amino)butanoate] |  |  |  | 0.200 | 100.2 | 33 | 24 | 23.7 | 8.57 | 94.9 | 6.77 |  |  | 1.45E+06 | 0.90 | 2.00E+08 | 1.7 | 7.87E+09 | 1.70E+08 | 7.86E+10 |
| CCCCCCCCCN(CCCC(=O)OCCCCC)CCC1CCN(C(=O)CN(CCCCCCCCC)CCN(CCCCCCCCC)CCCCCCCCC)CC1 [Compound 83, Pentyl 4-((2-(1-(N-(2-(dinonylamino)ethyl)-N-nonylglycyl)piperidin-4-yl)ethyl)(nonyl)amino)butanoate] | 0.22 | 73.2 | 99.12 |  |  |  |  |  |  |  |  |  | 5.21E+7 |  |  |  |  |  |  |  |
| CCCCCCCCCN(CCCCCCCCC)CCN(CCCCCCCCC)CCC1CCN(C(=O)CN(CCCCCCCCC)CCCCCCCCC)CC1 [Compound 50, 2-(Dinonylamino)-1-(4-(2-((2-(dinonylamino)ethyl)(nonyl)amino)ethyl)piperidin-1-yl)ethan-1-one] |  |  |  | 0.190 | 65.6 | 56 | 47 |  |  | 98.7 | 5.55 | smallest particles |  |  |  |  |  | 2.14E+07 | 1.94E+05 | 1.48E+08 |
| CCCCCCCCCN(CCCCCCCCC)CCC1CCN(C(=O)CN(CCCCCCCCC)CCN(CCCCCCCCC)CCCCCCCCC)C1 (stereo not drawn) [Compound 69, 2-((2-(Dinonylamino)ethyl)(nonyl)amino)-1-(3-(2-(dinonylamino)ethyl)pyrrolidin-1-yl)ethan-1-one] | 0.24 | 74.4 | 99.31 |  |  |  |  |  |  |  |  |  | 2.33E+8 |  |  |  |  |  |  |  |
| CCCCCCCCCN(CCCCCCCCC)CCC1CCN(C(=O)CN(CCCCCCCCC)CCN(CCCCCCCCC)CCCCCCCCC)CC1 [Compound 49, 2-((2-(Dinonylamino)ethyl)(nonyl)amino)-1-(4-(2-(dinonylamino)ethyl)piperidin-1-yl)ethan-1-one] |  |  |  | 0.200 | 95.8 | 49 | 40 | 40.3 | 38.45 | 98.8 | 6.4 |  |  | 5.98E+06 | 3.7 | 1.44E+08 | 1.2 | 1.21E+10 | 6.65E+07 | 5.67E+10 |
| CCCCCCCCCN(CCCC(=O)OCCCCC)CCC1CCN(C(=O)CN(CCCCCCCCC)CCN(CCCCCCCCC)CCCCCCCCC)C1 (stereo not drawn) [Compound 81, Pentyl 4-((2-(1-(N-(2-(dinonylamino)ethyl)-N-nonylglycyl)pyrrolidin-3-yl)ethyl)(nonyl)amino)butanoate] | 0.17 | 65.3 | 99.27 |  |  |  |  |  |  |  |  |  | 1.08E+8 |  |  |  |  |  |  |  |

Now from value to molecule, other results behind:

| PDI ([2]; Table 1b) | Size (nm) ([2]; Table 1b) | EE (%) ([3]; Table 1b) | PDI [2, 10] | Size (nm) [2, 11] [nm] | % Dose remaining 6 h CD-1 mice [5] [%] | % Dose remaining 24 h CD-1 mice [5] [%] | % dose remaining Mouse liver (24 h) [5] [%] | % dose remainng Rat liver (48 h) [6] [%] | EE (%) [3, 10] [%] | pKa [8] | particle size, rank within the named table (in words) ([2]; comparison amongst compositions) | Compound | AUC (p/s*h) CD-1 mice 0.5 mpk (hEPO mRNA expression [1]) [p/s*h] | AUC (0.1 mpk) (hEPO mRNA expression [4]) | AUC/MC3 0.1 mpk (hEPO mRNA expression [4]) | AUC (1 mpk) (hEPO mRNA expression [4]) | AUC/MC3 1 mpk (hEPO mRNA expression [4]) | Total Flux Liver [7] | Total Flux Spleen [7] | Total Flux 6 hours [9] |
| --- | --- | --- | --- | --- | --- | --- | --- | --- | --- | --- | --- | --- | --- | --- | --- | --- | --- | --- | --- | --- |
|  |  |  | 0.220 | 99.0 | 69 | 64 |  |  | 99.1 | 6.72 |  | CCCCCCCCCCCCN(CCCCCCCCCCCC)CCN(CCCCCCCCCCCC)CC(=O)N1CC2CC1CN2C(=O)CN(CCCCCCCCC)CCCCCCCCC (stereo not drawn) [Compound 43, 2-((2-(Didodecylamino)ethyl)(dodecyl)amino)-1-(5-(dinonylglycyl)-2,5-diazabicyclo[2.2.1]heptan-2-yl)ethan-1-one] |  |  |  |  |  | 2.60E+08 | 4.52E+07 | 4.54E+09 |
|  |  |  | 0.190 | 76.6 | 54 | 41 |  |  | 98.4 | 6.44 |  | CCCCCCCCCCCCCCN(CCCCCCCCCCCCCC)CC(=O)N1CCN(C(=O)CN(CCCCCCCCC)CCN(CCCCCCCCC)CCCCCCCCC)CC1 [Compound 51, 2-((2-(Dinonylamino)ethyl)(nonyl)amino)-1-(4-(ditetradecylglycyl)piperazin-1-yl)ethan-1-one] |  |  |  |  |  | 3.55E+09 | 2.24E+07 | 6.70E+10 |
|  |  |  | 0.180 | 89.8 | 1 | <1 |  |  | 53.1 | 6.82 |  | CCCCCCCCCN(CCCCCCCCC)CCN(CCCCCCCC(=O)OC)CC(=O)N1CCN(C(=O)CN(CCCCCCCCC)CCCCCCCCC)CC1 [Compound 47, Methyl 8-((2-(dinonylamino)ethyl)(2-(4-(dinonylglycyl)piperazin-1-yl)-2-oxoethyl)amino)octanoate] |  |  |  |  |  | 4.95E+08 | 1.42E+08 | 2.64E+09 |
|  |  |  | 0.190 | 94.9 | <1 | <1 |  |  | 89.5 | 6.82 |  | CCCCCCCCCN(CCCCCCCCC)CCN(CCCCCCCCC)CC(=O)N1CCN(C(=O)CN(CCCCCCCCC)CCCCCCCC(=O)OC)CC1 [Compound 44, Methyl 8-((2-(4-(N-(2-(dinonylamino)ethyl)-N-nonylglycyl)piperazin-1-yl)-2-oxoethyl)(nonyl)amino)octanoate] |  |  |  |  |  | 1.11E+09 | 1.19E+08 | 1.07E+10 |
